Source: US20230310388A1, “Methods and Compositions for Treating Fungal Infections” (Neoculi Pty Ltd, priority 2020, published 2023)
Values after ≈ are worked out from the molar mass of the structure shown. Each block holds one molecule with its values, some of them ahead of it.

What was measured:
Candida albicans [1] = assay: CLSI broth microdilution MIC (Example 4); type: cell-based; details: for antifungal activity against the two isolates of Candida albicans: summary in words
Description: (§1) Antifungal minimum inhibitory concentration (MIC) testing was undertaken as recommended by the CLSI. Briefly, antifungal susceptibility tests were performed for amphotericin B, robenidine (NCL812) and robenidine (NCL) analogs (NCL004, NCL020, NCL023, NCL024, NCL062, NCL094, NCL097, NCL110, NCL113, NCL114, NCL115, NCL135, NCL139, NCL180, NCL181, NCL195, NCL219, NCL220, NCL228, NCL247, NCL250, NCL259, NCL260, NCL263, NCL265, NCL269, NCL274) by standard broth microdilution method (CLSI) in RPMI 1640. Various concentrations (ranging from high to low) of the selected compounds were prepared in RPMI 1640 medium by double dilution in 96-well microtitre plates. Each well contained an inoculum of approximately 2×10^3 cells/mL. The wells without addition of drugs served as negative (no inoculum) and positive (inoculum only) growth controls. Microtitre plates were incubated at 35° C. for 24-48 hours. […] Antifungal MICs were determined for each isolate in duplicate; if the values obtained were different, the MIC test was repeated a third time.

Cryptococcus neoformans [2] = assay: CLSI broth microdilution MIC (Example 4); type: cell-based
Description: as §1

Candida albicans [3] = assay: CLSI broth microdilution MIC (Example 5); type: cell-based
Description: as §1, with “robenidine” for “robenidine (NCL)”, “(NCL23, NCL24, NCL97,” for “(NCL004, NCL020, NCL023, NCL024, NCL062, NCL094, NCL097, NCL110,”, “NCL113,” for “NCL113, NCL114,”, “NCL115,” for “NCL115, NCL135, NCL139, NCL180, NCL181,”, “NCL220,” for “NCL220, NCL228, NCL247, NCL250,”, “NCL265)” for “NCL260, NCL263, NCL265, NCL269, NCL274)”

Cryptococcus neoformans [4] = assay: CLSI broth microdilution MIC (Example 5); type: cell-based
Description: as §1, with “robenidine” for “robenidine (NCL)”, “(NCL23, NCL24, NCL97,” for “(NCL004, NCL020, NCL023, NCL024, NCL062, NCL094, NCL097, NCL110,”, “NCL113,” for “NCL113, NCL114,”, “NCL115,” for “NCL115, NCL135, NCL139, NCL180, NCL181,”, “NCL220,” for “NCL220, NCL228, NCL247, NCL250,”, “NCL265)” for “NCL260, NCL263, NCL265, NCL269, NCL274)”

Candida albicans [5] = assay: CLSI broth microdilution MIC (Example 6); type: cell-based
Description: (§2) Antifungal minimum inhibitory concentration (MIC) testing was undertaken as recommended by the CLSI (1). Briefly, antifungal susceptibility tests were performed for amphotericin B, robenidine (NCL812) and 10 robenidine analogs (NCL023, NCL024, NCL097, NCL113, NCL115, NCL195, NCL219, NCL220, NCL259, NCL265) by standard broth microdilution method (CLSI) in RPMI 1640. Various concentrations (ranging from high to low) of the selected compounds were prepared in RPMI 1640 medium by double dilution in 96-well microtitre plates. Each well contained an inoculum of approximately 2×10^3 cells/mL. The wells without addition of drugs served as negative (no inoculum) and positive (inoculum only) growth controls. Microtitre plates were incubated at 35° C. for 24-48 hours. […] Antifungal MICs were determined for each isolate in duplicate; if the values obtained were different, the MIC test was repeated a third time.

Cryptococcus neoformans [6] = assay: CLSI broth microdilution MIC (Example 6); type: cell-based
Description: as §2

C. gattii = assay: CLSI broth microdilution MIC (Example 6); type: cell-based, Cryptococcus gattii
Description: as §2

[7] = test system: Candida albicans ATCC14053; assay: Broth micro-dilution screen at 16 μg/mL and MIC (Example 9); type: cell-based; details: for Screen at 16 μg/mL: single concentration 16 μg/mL, Growth or No growth of C. albicans ATCC14053
Description: The antifungal activity of 201 NCL analogs against Candida albicans ATCC14053 in vitro was investigated. A broth micro-dilution method was used, according to CLSI guidelines as described. NCL analogs were dissolved in DMSO and originally screened at a single concentration of 16 μg/mL.

Candida albicans [8] = assay: CLSI broth microdilution MIC (Example 3); type: cell-based
Description: as §2, with “the CLSI.” for “the CLSI (1).”, “and 5” for “and 10”, “analogs (NCL062,” for “analogs (NCL023, NCL024, NCL097, NCL113, NCL115,”, “NCL219,” for “NCL219, NCL220,”, “time. Antifungal susceptibility tests were performed for amphotericin B and NCL analogs by standard broth microdilution method (CLSI). Briefly, various concentrations (ranging from high to low) of the selected compounds were prepared in RPMI 1640 medium by double dilution in the 96-well plates. Each well contained an inoculum of approximately 2×10^3 cells/mL. The wells without addition of drugs served as a negative control. Micro plates were incubated at 35° C. for 48 hour and read spectrophotometrically at 600 nm, using a microplate reader (Multiskan-EX; Thermo Elect. Corp., USA).” for “time.”

Candida parapsilosis = assay: CLSI broth microdilution MIC (Example 3); type: cell-based; details: Candida parapsilosis ATCC 22019
Description: as §2, with “the CLSI.” for “the CLSI (1).”, “and 5” for “and 10”, “analogs (NCL062,” for “analogs (NCL023, NCL024, NCL097, NCL113, NCL115,”, “NCL219,” for “NCL219, NCL220,”, “time. Antifungal susceptibility tests were performed for amphotericin B and NCL analogs by standard broth microdilution method (CLSI). Briefly, various concentrations (ranging from high to low) of the selected compounds were prepared in RPMI 1640 medium by double dilution in the 96-well plates. Each well contained an inoculum of approximately 2×10^3 cells/mL. The wells without addition of drugs served as a negative control. Micro plates were incubated at 35° C. for 48 hour and read spectrophotometrically at 600 nm, using a microplate reader (Multiskan-EX; Thermo Elect. Corp., USA).” for “time.”

MIC at 24-48 hours (Candida albicans [1]; Candida albicans ATCC 90028): 32 µg/mL (≈ 87.1 µM) | MIC at 24-48 hours (Candida albicans [1]; Candida albicans SA3): 32 µg/mL (≈ 87.1 µM) | MIC at 24-48 hours (Cryptococcus neoformans [2]; Cryptococcus neoformans SA1): 2 µg/mL (≈ 5.44 µM) | MIC at 24-48 hours (Cryptococcus neoformans [2]; Cryptococcus neoformans SA2): 4 µg/mL (≈ 10.9 µM) | MIC (Candida albicans [3]; C. albicans SA3): 32 µg/mL (≈ 87.1 µM) | MIC (Candida albicans [3]; Candida albicans ATCC 90028): 32 µg/mL (≈ 87.1 µM) | MIC (Candida albicans [3]; clinical isolate C. albicans 12-93301752 Azole Resistant): 4 µg/mL (≈ 10.9 µM) | MIC (Candida albicans [3]; clinical isolate C. albicans 14-90045999 Azole Resistant): >16 µg/mL | MIC (Candida albicans [3]; clinical isolate C. albicans 15-45171061): >16 µg/mL | MIC (Candida albicans [3]; clinical isolate C. albicans 15-91329871): 8 µg/mL (≈ 21.8 µM) | MIC (Candida albicans [3]; clinical isolate C. albicans 16-24136919 Azole Resistant): 4 µg/mL (≈ 10.9 µM) | MIC (Candida albicans [3]; clinical isolate C. albicans 16-46177400): >16 µg/mL | MIC (Candida albicans [3]; clinical isolate C. albicans 16-90050810): >16 µg/mL | MIC (Candida albicans [3]; clinical isolate C. albicans 16-90054237): 8 µg/mL (≈ 21.8 µM) | MIC (Candida albicans [3]; clinical isolate C. albicans 18-144-00196): 8 µg/mL (≈ 21.8 µM) | MIC (Candida albicans [3]; clinical isolate C. albicans 18-148-08188 Azole Resistant): 4 µg/mL (≈ 10.9 µM) | MIC (Cryptococcus neoformans [4]; Cryptococcus neoformans SA1): 2 µg/mL (≈ 5.44 µM) | MIC (Cryptococcus neoformans [4]; Cryptococcus neoformans SA2): 4 µg/mL (≈ 10.9 µM) | MIC (Candida albicans [5]; C. albicans SA3): 32 µg/mL (≈ 87.1 µM) | MIC (Candida albicans [5]; Candida albicans ATCC 90028): 32 µg/mL (≈ 87.1 µM) | MIC (Cryptococcus neoformans [6]; Cryptococcus neoformans SA1): 2 µg/mL (≈ 5.44 µM) | MIC (Cryptococcus neoformans [6]; Cryptococcus neoformans SA2): 4 µg/mL (≈ 10.9 µM) | MIC (Cryptococcus neoformans [6]; human clinical isolate C. neoformans serotype A/D hybrid): 32 µg/mL (≈ 87.1 µM) | MIC (Cryptococcus neoformans [6]; human clinical isolate C. neoformans var grubii 16-90050434): 32 µg/mL (≈ 87.1 µM) | MIC (Cryptococcus neoformans [6]; human clinical isolate C. neoformans var grubii 17-90028233): >32 µg/mL | MIC (Cryptococcus neoformans [6]; human clinical isolate C. neoformans var grubii 17-93996464): 32 µg/mL (≈ 87.1 µM) | MIC (Cryptococcus neoformans [6]; human clinical isolate C. neoformans var grubii 17-93996964): 32 µg/mL (≈ 87.1 µM) | MIC (C. gattii; human clinical isolate C. gatti 17-90232099): 4 µg/mL (≈ 10.9 µM) | MIC (C. gattii; human clinical isolate C. gattii 16-90050373): >32 µg/mL | MIC (C. gattii; human clinical isolate C. gattii 17-90028211): 32 µg/mL (≈ 87.1 µM) | MIC (C. gattii; human clinical isolate C. gattii 17-90028217): 4 µg/mL (≈ 10.9 µM) | MIC (C. gattii; human clinical isolate C. gattii 17-90028242): 32 µg/mL (≈ 87.1 µM) | MIC ([7]; C. albicans ATCC14053, test range 0.25-64 μg/mL, duplicate): >64 µg/mL
Compound: Nc1nc(NN=Cc2ccc(F)cc2)cc(NN=Cc2ccc(F)cc2)n1 [NCL220]
antifungal activity against the two isolates of Candida albicans (Candida albicans [1]): high antifungal activity | activity against one or more isolates of Cryptococcus neoformans and Candida albicans (Candida albicans [3]; summary in words): highly active | Screen at 16 μg/mL [7]: Growth

MIC (Candida albicans [8]; Candida albicans ATCC 90028, 1st): 1 µg/mL | MIC (Candida albicans [8]; Candida albicans ATCC 90028, 2nd): 1 µg/mL | MIC (Candida albicans [8]; Candida albicans, 1st): 0.5 µg/mL | MIC (Candida albicans [8]; Candida albicans, 2nd): 1 µg/mL | MIC (Candida parapsilosis; 1st): 0.5 µg/mL | MIC (Candida parapsilosis; 2nd): 1 µg/mL | MIC at 24-48 hours (Candida albicans [1]; Candida albicans ATCC 90028): 1 µg/mL | MIC at 24-48 hours (Candida albicans [1]; Candida albicans SA3): 1 µg/mL | MIC at 24-48 hours (Cryptococcus neoformans [2]; Cryptococcus neoformans SA1): 1 µg/mL | MIC at 24-48 hours (Cryptococcus neoformans [2]; Cryptococcus neoformans SA2): 1 µg/mL
Compound: C/C(=N\NC(=N)N/N=C(\C)c1ccc(Cl)cc1)c1ccc(Cl)cc1.Cl [NCL062]
antifungal activity against the two isolates of Candida albicans (Candida albicans [1]): high antifungal activity | Screen at 16 μg/mL [7]: Growth
